Test results reported in patent publication US9562035B2, “Benzamide derivative useful as FASN inhibitors for the treatment of cancer” (Janssen Pharmaceutica NV, priority 2013, dated 2017).

What was measured:
[1] = target: T1, FASN Keto-reductase Domain (Homo sapiens, UniProt P49327); experiment: Fatty Acid Synthase Keto-Reductase Domain (FASN KR) Inhibition; format: biochemical; settings: mean where tested more than once; read-out: FASN K-R Domain pIC50 (converted)
T1 construct: 10 μL hFASN enzyme (full length, 300 ng, purified in house) and 360 μM NADPH; made in house
T1 sequence (P49327 whole entry, the tested form may be a part): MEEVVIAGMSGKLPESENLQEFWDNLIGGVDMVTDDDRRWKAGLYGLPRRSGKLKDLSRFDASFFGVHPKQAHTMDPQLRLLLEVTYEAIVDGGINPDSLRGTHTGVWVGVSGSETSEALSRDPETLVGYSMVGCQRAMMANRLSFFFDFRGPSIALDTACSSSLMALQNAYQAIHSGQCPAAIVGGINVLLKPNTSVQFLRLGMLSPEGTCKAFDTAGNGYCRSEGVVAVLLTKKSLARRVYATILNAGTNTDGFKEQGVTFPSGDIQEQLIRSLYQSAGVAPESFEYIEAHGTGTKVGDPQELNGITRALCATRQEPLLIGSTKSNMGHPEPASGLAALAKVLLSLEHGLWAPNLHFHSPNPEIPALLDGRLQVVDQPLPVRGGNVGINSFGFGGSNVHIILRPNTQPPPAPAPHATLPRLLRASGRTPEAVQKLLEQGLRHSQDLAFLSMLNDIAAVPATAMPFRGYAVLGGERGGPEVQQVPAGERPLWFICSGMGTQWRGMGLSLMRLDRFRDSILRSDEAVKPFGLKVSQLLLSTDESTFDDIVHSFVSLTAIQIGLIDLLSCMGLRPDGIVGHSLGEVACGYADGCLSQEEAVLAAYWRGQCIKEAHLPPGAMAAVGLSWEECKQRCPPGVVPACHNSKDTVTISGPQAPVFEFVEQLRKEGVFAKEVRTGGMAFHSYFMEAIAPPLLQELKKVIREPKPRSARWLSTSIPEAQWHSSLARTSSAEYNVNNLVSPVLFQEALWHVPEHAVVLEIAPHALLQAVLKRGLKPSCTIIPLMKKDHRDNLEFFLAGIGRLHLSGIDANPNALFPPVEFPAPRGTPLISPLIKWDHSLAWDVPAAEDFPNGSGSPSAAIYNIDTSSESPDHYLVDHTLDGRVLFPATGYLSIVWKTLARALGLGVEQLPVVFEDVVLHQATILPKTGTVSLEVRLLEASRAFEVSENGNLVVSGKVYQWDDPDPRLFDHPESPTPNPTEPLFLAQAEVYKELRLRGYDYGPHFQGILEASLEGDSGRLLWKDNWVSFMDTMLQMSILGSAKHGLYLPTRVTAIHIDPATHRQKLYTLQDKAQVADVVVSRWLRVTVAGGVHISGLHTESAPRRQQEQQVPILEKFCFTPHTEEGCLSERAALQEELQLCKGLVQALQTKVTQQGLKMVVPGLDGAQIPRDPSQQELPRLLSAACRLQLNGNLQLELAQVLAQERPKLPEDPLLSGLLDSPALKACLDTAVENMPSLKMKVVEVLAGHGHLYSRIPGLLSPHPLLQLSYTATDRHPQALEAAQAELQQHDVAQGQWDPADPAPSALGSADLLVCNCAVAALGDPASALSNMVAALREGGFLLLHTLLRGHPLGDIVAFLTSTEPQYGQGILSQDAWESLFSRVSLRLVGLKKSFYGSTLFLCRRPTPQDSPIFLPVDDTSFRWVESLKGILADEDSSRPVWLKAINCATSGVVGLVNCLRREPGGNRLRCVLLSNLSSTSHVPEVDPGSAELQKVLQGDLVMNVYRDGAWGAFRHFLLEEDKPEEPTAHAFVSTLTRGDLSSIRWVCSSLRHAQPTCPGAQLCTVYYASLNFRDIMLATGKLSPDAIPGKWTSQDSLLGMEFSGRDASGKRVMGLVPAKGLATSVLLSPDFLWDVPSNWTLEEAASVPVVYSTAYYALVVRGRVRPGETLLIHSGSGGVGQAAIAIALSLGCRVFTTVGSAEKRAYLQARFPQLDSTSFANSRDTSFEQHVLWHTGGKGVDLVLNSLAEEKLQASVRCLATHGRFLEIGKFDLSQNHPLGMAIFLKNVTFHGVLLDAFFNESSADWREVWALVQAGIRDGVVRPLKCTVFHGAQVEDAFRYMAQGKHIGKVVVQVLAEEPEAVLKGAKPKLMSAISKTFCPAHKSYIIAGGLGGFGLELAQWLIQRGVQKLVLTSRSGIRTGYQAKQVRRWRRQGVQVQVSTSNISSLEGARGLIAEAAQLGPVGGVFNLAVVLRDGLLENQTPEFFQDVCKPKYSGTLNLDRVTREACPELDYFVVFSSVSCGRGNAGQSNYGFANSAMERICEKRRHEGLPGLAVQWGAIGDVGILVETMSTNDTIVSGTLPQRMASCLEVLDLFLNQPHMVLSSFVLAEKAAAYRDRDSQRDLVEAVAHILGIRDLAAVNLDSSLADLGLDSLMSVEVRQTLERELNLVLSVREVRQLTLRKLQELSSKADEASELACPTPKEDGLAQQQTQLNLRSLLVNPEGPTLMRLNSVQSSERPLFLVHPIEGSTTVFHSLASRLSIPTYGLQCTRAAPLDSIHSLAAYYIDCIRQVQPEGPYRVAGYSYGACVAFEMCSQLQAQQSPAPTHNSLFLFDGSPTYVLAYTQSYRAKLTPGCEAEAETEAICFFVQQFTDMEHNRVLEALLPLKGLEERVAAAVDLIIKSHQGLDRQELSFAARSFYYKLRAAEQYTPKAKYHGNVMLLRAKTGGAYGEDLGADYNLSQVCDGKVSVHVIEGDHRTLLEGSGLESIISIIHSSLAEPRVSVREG
Outline: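 Keto-reductase activity followed as NADPH consumption (A340 drop between 0 and 20 min, room temperature) using in-house full-length hFASN, 360 μM NADPH and ethyl acetoacetate substrate (180 mM stock), pH 7.5 phosphate buffer.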

[2] = target: T2, hFASN enzyme (full length) (Homo sapiens, UniProt P49327); experiment: Fatty Acid Synthase (FASN) Inhibition Scintillation Proximity Assay; format: biochemical; settings: for IC50: mean where tested more than once, ~ = standard error of pIC50 larger than 0.5; for inhibition at 10 µM: read-out: FASN % Effect @1E−05M
T2 construct: 10 μL hFASN enzyme (full length, 300 ng, purified in house); made in house
T2 sequence (P49327 whole entry): as the sequence (P49327 whole entry, the tested form may be a part) above
Outline: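 Eight compound concentrations (0.01–30 μM) tested in pH 7.5 phosphate buffer with DTT; human full-length enzyme converted [3H]-acetyl-CoA plus malonyl-CoA, with NADPH, over 60 min at room temperature. Hydrophobic [3H]-palmitate detected by bead proximity scintillation imaging; control-normalised data fitted for IC50/pIC50.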

[3] = tested on: A2780 ovarian cells; experiment: A2780 Ovarian Cell Proliferation Assay in Lipid Reduced Medium, with Palmitate (control); format: cell-based; settings: Homo sapiens, A2780; lipid reduced medium, 25 μM palmitate, 96 h, MTT; read-out: Proliferation A2780 with Palmitate pIC50 (converted)
Outline: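 Read-out was MTT absorbance at 544 nm after 96 h at 37 °C. Cells grown overnight in RPMI1640/10% FCS were moved to 10% lipid-reduced serum with compound plus palmitate (final 25 μM, 0.2% fatty-acid-free BSA, 0.2% DMSO). IC50 came from least-squares curve fitting, expressed as −log(IC50).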

[4] = tested on: A2780 ovarian cells; experiment: A2780 Ovarian Cell Proliferation Assay in Lipid Reduced Medium, without Palmitate; format: cell-based; settings: Homo sapiens, A2780; lipid reduced medium, without palmitate, 96 h, MTT; read-out: Proliferation A2780 w/o Palmitate pIC50 (converted)
Outline: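 A2780 cells were seeded in 10% FCS medium and switched next day to 10% lipid-reduced serum without palmitate. Compounds at 0.01–30 μM were added with 0.2% DMSO, 0.2% fatty-acid-free BSA and 0.25% ethanol final. After 96 h, MTT absorbance at 544 nm was normalized to plate controls, and IC50/pIC50 came from a 4-parameter logistic fit.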

Compound | IC50 [1] [nM] | IC50 [2] [nM] | inhibition at 10 µM [2] [%] | IC50 [3] [nM] | IC50 [4] [nM]
Cc1ccc(C(=O)N2CCC(c3ccc(-c4cnn(C)c4)cc3)CC2)cc1NC(=O)[C@H]1CCCN1 [Compound 172, (R)—N-(2-methyl-5-(4-(4-(1-methyl-1H-pyrazol-4-yl)phenyl)piperidine-1-carbonyl)phenyl)pyrrolidine-2-carboxamide] | 741 | 490 | 91 | > 10000 | 794
CCN1CCC(C(=O)Nc2cc(C(=O)N3CCC(c4ccc(-c5cnn(C)c5)cc4)CC3)ccc2C)C1 (stereo not shown) [Compound 185, 1-ethyl-N-(2-methyl-5-(4-(4-(1-methyl-1H-pyrazol-4-yl)phenyl)piperidine-1-carbonyl)phenyl)pyrrolidine-3-carboxamide] | 501 | 251 | 101 | > 10000 | ~501
CCCN1CCC(C(=O)Nc2cc(C(=O)N3CCC(c4ccc(-c5cnn(C)c5)cc4)CC3)ccc2C)C1 (stereo not shown) [Compound 186, N-(2-methyl-5-(4-(4-(1-methyl-1H-pyrazol-4-yl)phenyl)piperidine-1-carbonyl)phenyl)-1-propylpyrrolidine-3-carboxamide] | 331 | 95.5 | 106 | > 10000 | ~195
Cc1ccc(C(=O)N2CCC(c3ccc(-c4cnn(C)c4)cc3)CC2)cc1NC(=O)C1CN(C2CCCC2)C1 [Compound 187, 1-cyclopentyl-N-(2-methyl-5-(4-(4-(1-methyl-1H-pyrazol-4-yl)phenyl)piperidine-1-carbonyl)phenyl)azetidine-3-carboxamide] | 302 | 141 | 103 | > 10000 | ~282
Cc1ccc(C(=O)N2CCC(c3ccc(-c4cnn(C)c4)cc3)CC2)cc1NC(=O)C1CCN(CC(C)C)C1 (stereo not shown) [Compound 188, 1-isobutyl-N-(2-methyl-5-(4-(4-(1-methyl-1H-pyrazol-4-yl)phenyl)piperidine-1-carbonyl)phenyl)pyrrolidine-3-carboxamide] | 170 | 61.7 | 104 | > 10000 | 105
Cc1ccc(C(=O)N2CCC(c3ccc(-c4cnn(C)c4)cc3)CC2)cc1NC(=O)C1CCN(C2CCCC2)C1 (stereo not shown) [Compound 189, 1-cyclopentyl-N-(2-methyl-5-(4-(4-(1-methyl-1H-pyrazol-4-yl)phenyl)piperidine-1-carbonyl)phenyl)pyrrolidine-3-carboxamide] | 309 | 126 | 102 | > 10000 | 263
Cc1ccc(C(=O)N2CCC(c3ccc(-c4cnn(C)c4)cc3)CC2)cc1NC(=O)C1CN(CC(C)(C)C)C1 [Compound 190, N-(2-methyl-5-(4-(4-(1-methyl-1H-pyrazol-4-yl)phenyl)piperidine-1-carbonyl)phenyl)-1-neopentylazetidine-3-carboxamide] | 251 | 74.1 | 102 | > 10000 | 257
Cc1ccc(C(=O)N2CCC(c3ccc(-c4cnn(C)c4)cc3)CC2)cc1NC(=O)C1CN(C2CCCCC2)C1 [Compound 191, 1-cyclohexyl-N-(2-methyl-5-(4-(4-(1-methyl-1H-pyrazol-4-yl)phenyl)piperidine-1-carbonyl)phenyl)azetidine-3-carboxamide] | 191 | 69.2 | 103 | 9330 | 141
Cc1ccc(C(=O)N2CCC(c3ccc(-c4cnn(C)c4)cc3)CC2)cc1NC(=O)C1CCN(C2CCC(C)C2)C1 (stereo not shown) [Compound 194, N-(2-methyl-5-(4-(4-(1-methyl-1H-pyrazol-4-yl)phenyl)piperidine-1-carbonyl)phenyl)-1-(3-methylcyclopentyl)pyrrolidine-3-carboxamide] | 214 | 117 | 102 | ~8710 | 158

The next lines start with the values.

IC50 [1] [nM] | IC50 [2] [nM] | inhibition at 10 µM [2] [%] | IC50 [3] [nM] | IC50 [4] [nM] | Compound
135 | 60.3 | 103 | > 10000 | 141 | Cc1ccc(C(=O)N2CCC(c3ccc(-c4cnn(C)c4)cc3)CC2)cc1NC(=O)c1cncs1 [Compound 174, N-(2-methyl-5-(4-(4-(1-methyl-1H-pyrazol-4-yl)phenyl)piperidine-1-carbonyl)phenyl)thiazole-5-carboxamide]
77.6 | 49 | 108 | ~10000 | 38.9 | CCCCC(C)N1CCC(C(=O)Nc2cc(C(=O)N3CCC(c4ccc(-c5cnn(C)c5)cc4)CC3)ccc2C)CC1 (stereo not shown) [Compound 175, 1-(hexan-2-yl)-N-(2-methyl-5-(4-(4-(1-methyl-1H-pyrazol-4-yl)phenyl)piperidine-1-carbonyl)phenyl)piperidine-4-carboxamide]
105 | 33.9 | 110 | ~10000 | 53.7 | CCCCCN1CCC(C(=O)Nc2cc(C(=O)N3CCC(c4ccc(-c5cnn(C)c5)cc4)CC3)ccc2C)CC1 [Compound 176, N-(2-methyl-5-(4-(4-(1-methyl-1H-pyrazol-4-yl)phenyl)piperidine-1-carbonyl)phenyl)-1-pentylpiperidine-4-carboxamide]
50.1 | 25.7 | 112 | > 10000 | 13.8 | Cc1ccc(C(=O)N2CCC(c3ccc(-c4cnn(C)c4)cc3)CC2)cc1NC(=O)C1CCN(C2CCCCC2)CC1 [Compound 177, 1-cyclohexyl-N-(2-methyl-5-(4-(4-(1-methyl-1H-pyrazol-4-yl)phenyl)piperidine-1-carbonyl)phenyl)piperidine-4-carboxamide]
58.9 | 45.7 | 106 | > 10000 | 26.9 | Cc1ccc(C(=O)N2CCC(c3ccc(-c4cnn(C)c4)cc3)CC2)cc1NC(=O)C1CCN(CC(C)(C)C)CC1 [Compound 178, N-(2-methyl-5-(4-(4-(1-methyl-1H-pyrazol-4-yl)phenyl)piperidine-1-carbonyl)phenyl)-1-neopentylpiperidine-4-carboxamide]
37.2 | 26.3 | 108 | > 6170 | 57.5 | Cc1ccc(C(=O)N2CCC(c3ccc(-c4cnn(C)c4)cc3)CC2)cc1NC(=O)C1CCN(CC(C)C)CC1 [Compound 179, 1-isobutyl-N-(2-methyl-5-(4-(4-(1-methyl-1H-pyrazol-4-yl)phenyl)piperidine-1-carbonyl)phenyl)piperidine-4-carboxamide]
40.7 | 25.1 | 104 | > 10000 | 16.6 | Cc1ccc(C(=O)N2CCC(c3ccc(-c4cnn(C)c4)cc3)CC2)cc1NC(=O)C1CCN(C2CCCC2)CC1 [Compound 180, 1-cyclopentyl-N-(2-methyl-5-(4-(4-(1-methyl-1H-pyrazol-4-yl)phenyl)piperidine-1-carbonyl)phenyl)piperidine-4-carboxamide]
110 | 41.7 | 108 | > 10000 | 32.4 | CCCN1CCC(C(=O)Nc2cc(C(=O)N3CCC(c4ccc(-c5cnn(C)c5)cc4)CC3)ccc2C)CC1 [Compound 181, N-(2-methyl-5-(4-(4-(1-methyl-1H-pyrazol-4-yl)phenyl)piperidine-1-carbonyl)phenyl)-1-propylpiperidine-4-carboxamide]
123 | 36.3 | 105 | > 10000 | 58.9 | COc1ccc(C(=O)N2CC(c3ccc(-c4cnn(C)c4)cc3)C2)cc1NC(=O)c1ccc(N2CCOCC2)nc1 [Compound 184, N-(2-methoxy-5-(3-(4-(1-methyl-1H-pyrazol-4-yl)phenyl)azetidine-1-carbonyl)phenyl)-6-morpholinonicotinamide]
170 | 53.7 | 105 | > 10000 | 79.4 | Cc1ccc(C(=O)N2CCC(c3ccc(-c4cnn(C)c4)cc3)CC2)cc1NC(=O)C1CCN(CC(C)(C)C)C1 (stereo not shown) [Compound 192, N-(2-methyl-5-(4-(4-(1-methyl-1H-pyrazol-4-yl)phenyl)piperidine-1-carbonyl)phenyl)-1-neopentylpyrrolidine-3-carboxamide]
178 | 60.3 | 109 | 7080 | 148 | Cc1ccc(C(=O)N2CCC(c3ccc(-c4cnn(C)c4)cc3)CC2)cc1NC(=O)C1CN(C2CCC(C)C2)C1 (stereo not shown) [Compound 193, N-(2-methyl-5-(4-(4-(1-methyl-1H-pyrazol-4-yl)phenyl)piperidine-1-carbonyl)phenyl)-1-(3-methylcyclopentyl)azetidine-3-carboxamide]
